Reference: patent US8101740B2, “Positron emission tomography probes for imaging immune activation and selected cancers” (The Regents of the University of California, priority 2007, dated 2012)
Like-named read-outs stand apart in the source and are kept apart here.

Legend:
MoMSV-induced sarcomas = assay: microPET/CT in oncoretrovirus (MoMSV) sarcoma model of anti-tumor immunity
Procedure: All the mice used in these studies were bred and maintained according to the guidelines of the Department of Laboratory Animal Medicine (DLAM) at the University of California, Los Angeles. For the oncoretrovirus-induced sarcoma model, C57/BL6 mice were challenged intramuscularly in the right triceps with the Moloney murine sarcoma and leukemia virus complex (MoMSV) in a volume of 100 uL of PBS as described previously^6. B6-MRL-Fas^1pr/J mice used for systemic autoimmunity studies were purchased from the Jackson Laboratory (stock number 000482). To monitor the immunosuppressive treatment, these mice were given intraperitoneal injections of dexamethasone (DEX, 10 mg/kg) at 24 hr intervals and were scanned by microPET/CT 24 hr after the last injection. Animals were anesthetized with 2% isoflurane, injected intravenously with 200 microCi [^18F]D-FAC and then scanned with microPET/CT; mice were sacrificed immediately after imaging. Organs were rapidly excised, weighed, and the radioactivity was measured in a well counter. After decay correction, results were expressed as percent of the injected dose of activity per gram of tissue (% ID/g). Other mice were anesthetized with 2% isoflurane and injected intravenously with 1 mCi [^18F]D-FAC. After 1 hr, mice were euthanized, embedded in 3% carboxymethyl cellulose (CMC, Sigma), and frozen in 100% ethanol with dry ice for 45 min. The 50 micron sections were cut using a whole body cryostat, (PMV, Stockholm, Sweden); samples were exposed overnight on BAS-TR2025 plates (Fujifilm Life Science, Stamford, Conn.). Imaging plates were read using a Fujibas-5000 phosphorimager (16 bit, 25 micron resolution; Fujifilm Life Science).
In this model, antigen-specific T cells primed by immunodominant epitopes encoded by viral gag and env genes rapidly expand in spleen and tumor draining lymph nodes (DLNs) and then traffic to the tumor lesion which is rejected over a period of 2-5 weeks^17,18. In fact, the kinetics of T cell responses against MoMSV-induced sarcomas have been studied extensively using conventional ex vivo approaches and our group has used PET reporter gene imaging to visualize tumor rejection in this model^17. To analyze whether the [^18F]D-FAC microPET/CT imaging can detect sites of localized immune activation, mice were scanned before and after the virus challenge.
To determine whether [^18F]D-FAC can provide unique information regarding localized immune activation via the afore-mentioned model, the mice imaged by [^18F]D-FAC were also scanned on consecutive days using [^18F]FDG and [^18F]FLT.

[1] = test system: L1210 wild type or 10K subcutaneous tumors; assay: PET of subcutaneous L1210 wild type and 10K tumors; type: in vivo, SCID mice; conditions: mouse, in vivo
Procedure: To investigate whether [^18F]D-FAC PET can distinguish gemcitabine-sensitive cancer cells from the resistant cancer cells in vivo, mice were injected with L1210 wild type or 10K cells to establish subcutaneous tumors; mice were scanned with [^18F]FDG PET to confirm that implanted cells were viable and growing in vivo and [^18F]D-FAC PET scans were carried out to compare D-FAC accumulation in gemcitabine sensitive versus resistant cells. […] The mice were injected 4 days prior to imaging.
Mice were challenged with the MoMSV onco-retrovirus.

[2] = test system: L1210 murine leukemia cells (dCK^+); assay: radioactive tracer uptake assay, L1210 parental cells; type: cell-based
Description: (§1) To evaluate whether [^18F]D-FAC PET can determine resistance to gemcitabine and Ara-C, we used a previously described experimental model based on the L1210 murine leukemia cells and their gemcitabine/Ara-C resistant 10K derivatives^20. The molecular defect responsible for resistance in the L1210 10K cells is loss of dCK expression due to a genetic modification of chromosome 5 in the 3′ region of the dCK gene. The 10K cell line was derived by exposing the parental L1210 cells to increasing concentrations of gemcitabine^20; before experiments, we confirmed that L1210 10K cells lack expression of dCK at the protein level (FIG. 13). Thus, to determine whether D-FAC retention correlates with gemcitabine resistance in these cells, we performed radioactive tracer uptake assays using [^3H]D-FAC with [^3H]-FLT used as a negative control. We observed that the gemcitabine-resistant L1210-10K cell line retained much lower amounts of [^3H]D-FAC in contrast to the gemcitabine-sensitive L1210 parental cell line (FIG. 14A). In fact, [^3H]D-FAC uptake was 40-fold higher in dCK^+ cells compared to cells lacking dCK activity (dCK^+=1288 fmols/1×10^5 cells; dCK-=34 fmols/1×10^5 cells; p<0.001). In contrast, [^3H]FLT uptake was indistinguishable between these cell lines. FIG. 14B presents a [^3H]D-FAC kinase assay with the L1210 cell lines using [^3H]D-FAC as a substrate (1 microgram protein/reaction). In dCK positive cells shown in FIG. 14B, D-FAC phosphorylation was 52-fold higher than in dCK deficient cells (dCK^+=62 fmols; dCK^−=1.2 fmols; p=0.028). Reintroduction of dCK into the L1210-10K cells restored [^18F]D-FAC uptake and phosphorylation (FIG. 14), thus further confirming the critical role of this nucleoside kinase in regulating D-FAC metabolism.
(§2) Each cell type was incubated separately with each of the following: [^18F]L-FAC, and [^18F]-CA, and the positive control [^18F]D-FAC. The cells were incubated with [^18F]L-FAC, [^18F]-CA, and [^18F]D-FAC for 1 hour. Following successive washes, intracellular radioactivity was measured by scintillation counting to obtain the result shown in FIG. 17A.

[3] = molecular target: T1, deoxycytidine kinase (dCK) (Mus musculus, UniProt P43346); assay: kinase assay with L1210 cell line lysates; type: biochemical, murine; conditions: L1210 WT and 10K lysates, 20 minutes incubation
T1 construct: endogenous in cells; host or cells: L1210 murine leukemia cells (wild type), whole-cell lysate; L1210-10K (dCK-deficient) as negative control
Description: as §1, §2
Lysates from L1210 wildtype (WT) and dCK deficient (10K) cells were incubated for 20 minutes with [^18F]L-FMAC; phosphorylated products were measured by scintillation counting.

[4] = chromatography of plasma after intravenous injection of probe (deamination); type: in vivo, C57BL/6 mouse; conditions: plasma 10 and 45 minutes after intravenous injection
[5] = spleen, 60 min after intravenous injection, 3 mice
[6] = C57/BL6, mouse, in vivo, iv, 60 min

T1 sequence (P43346 whole entry): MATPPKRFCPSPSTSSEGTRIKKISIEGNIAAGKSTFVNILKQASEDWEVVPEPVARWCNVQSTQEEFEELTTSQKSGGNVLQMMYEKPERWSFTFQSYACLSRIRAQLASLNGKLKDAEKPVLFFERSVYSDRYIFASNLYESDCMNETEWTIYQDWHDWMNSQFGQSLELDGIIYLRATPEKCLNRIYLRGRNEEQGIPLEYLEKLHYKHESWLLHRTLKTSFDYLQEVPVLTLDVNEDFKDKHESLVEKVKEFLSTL

2-[^18F]fluoro-2-deoxy-D-glucose [[^18F]FDG, reference compound]
accumulation in tumor over background (contralateral muscle tissue) (MoMSV-induced sarcomas; tumor lesions): 8.2±4.2 % ID/g tumor over background
accumulation in gemcitabine sensitive versus resistant cells [1]: equivalent
retention in the brain and the myocardium (mouse, in vivo): substantially accumulates
Spleen, % ID/g per organ normalized to % ID/g muscle [5]: 1.69 +/− 0.16 % ID/g per organ normalized to % ID/g muscle

Cc1cn([C@H]2C[C@H](F)[C@@H](CO)O2)c(=O)[nH]c1=O [[^3H]FLT, 3′-fluoro-3′-deoxythymidine, reference compound]
uptake compared between L1210 and L1210-10K cell lines ([2]; negative control): indistinguishable

Nc1nc(Cl)nc2c1ncn2[C@@H]1O[C@H](CO)[C@@H](O)[C@@H]1[18F] [[^18F]-CA, 2-chloro-9-(2′-deoxy-2′-[^18F]fluoro-β-D-arabinofuranosyl)adenine]
dependence of retention and phosphorylation on dCK expression ([2]; L1210 wild type vs 10K cells, 1 hour incubation): requires dCK expression

Cc1cn([C@H]2C[C@H](F)[C@@H](CO)O2)c(=O)[nH]c1=O [[^18F]FLT, 3′-fluoro-3′-deoxythymidine]
accumulation at sites of immune activation (MoMSV-induced sarcomas; day 14): no detectable
Spleen, % ID/g per organ normalized to % ID/g muscle [6]: 1.02 +/− 0.21 % ID/g per organ normalized to % ID/g muscle
Thymus, % ID/g per organ normalized to % ID/g muscle [6]: 1.22 +/− 0.23 % ID/g per organ normalized to % ID/g muscle
accumulation in thymus and spleen [6]: neither [^18F]FLT nor [^18F]D-FMAU showed detectable accumulation

Cc1cn([C@@H]2O[C@H](CO)[C@@H](O)[C@@H]2F)c(=O)[nH]c1=O [[^18F]FMAU, 1-(2′-Deoxy-2′-fluoro-β-D-arabinofuranosyl)-5-methyluracil]
accumulation in thymus and spleen (60 min after intravenous injection): neither [^18F]FLT nor [^18F]D-FMAU showed detectable accumulation
Spleen, % ID/g per organ normalized to % ID/g muscle [5]: 1.08 +/− 0.27 % ID/g per organ normalized to % ID/g muscle
Thymus, % ID/g per organ normalized to % ID/g muscle (thymus, 60 min after intravenous injection, 3 mice): 1.33 +/− 0.24 % ID/g per organ normalized to % ID/g muscle

Cc1cn([C@H]2O[C@@H](CO)[C@H](O)[C@H]2[18F])c(=O)nc1N [[^18F]L-FMAC]
dependence of retention and phosphorylation on dCK expression [3]: requires dCK expression
resistance to deamination in plasma after injection into mice [4]: resistant to deamination
